Measurements taken from article PMC10982999, “Structure-Guided Design and Optimization of Covalent VHL-Targeted Sulfonyl Fluoride PROTACs” (Journal of Medicinal Chemistry, 2024).

How the values were obtained:
[1] = molecular target: T1, VCB and FAM-conjugated HIF1α-derived peptide interaction (Homo sapiens, UniProt P40337); assay: Competitive fluorescence polarization (FP) assay, VCB / FAM-conjugated HIF1α-derived peptide; type: binding; conditions: concentrations up to 100 μM, 2 h pre-incubation with VCB
T1 construct: human VHL (UniPort entry P40337, residues 1 -213); 6xHis followed by TEV site (N, cleaved yes); made in house; host or cells: E. coli One Shot BL21(DE3)
Protocol: We next focused on developing a second generation covalent VHL binder with enhanced potency and occupancy.
Figure 2 (A) Structure of VHL-SF2. […] (E) Competition pull-down assay from live cells between VHL-SF2-Biotin and VHL-SF2. HEK293T cells were pretreated with DMSO or varying concentrations of VHL-SF2 for 2 h at 37 °C. The cells were lysed and treated with DMSO or VHL-SF2-Biotin (50 μM) for 2 h at room temperature. A pull-down with streptavidin beads was conducted, after which the protein was resolved on SDS/PAGE. VHL and loading control GAPDH levels were visualized by Western blotting.
Figure S3. (A) Gel-based VHL labelling of VHL-SF1-Biotin, and (B) VHL-SF2-Biotin. VCB protein was pre-treated with DMSO, VHL-SF1-Biotin or VHL-SF2-Biotin for 2 h at room temperature, after which protein was resolved on SDS -PAGE and visualised by Neutravidin […]
Figure S4. Dose-response of VHL-SF1 following a 2 h pre-incubation in the presence of VCB and FAM-conjugated HIF1α-derived peptide, assessed by fluorescence polarization. Data […]
Figure S5. (A) VCB was incubated with DMSO for 24 h and subjected to intact-protein LC-MS (VHL: 24784 Da). […]
Fluorescence polarization assay protocol […]
well plate and the plate was shaken for 1 min, before reading fluorescence polarization on a Perkin Elmer Envision 2101 plate reader (excitation 486 nm, emission 535 nm). […]

physchem = conditions: buffer
Protocol: Table S1. Sulfonyl fluoride warhead stability for VHL-SF1 and VHL-SF2 was determined in
(1 picture or pasted object on this page, not shown here)

[2] = molecular target: T2, recombinant human VCB (VHL protein with elongin C and elongin B) (Homo sapiens, UniProt P40337); assay: Gel-based streptavidin shift assay (anti-VHL Western blot); type: binding; conditions: 10 μM probe, 2 h incubation at room temperature
T2 construct: human VHL (UniPort entry P40337, residues 1 -213); 6xHis followed by TEV site (N, cleaved yes); made in house; host or cells: E. coli One Shot BL21(DE3)
Protocol: To assess the ability of VHL-SF1 to covalently modify VHL, we initially developed a streptavidin shift assay in which we exposed recombinant human VCB, a stable complex of VHL protein with elongin C and elongin B, to VHL-SF1-Biotin. VHL biotinylation could then be directly quantified by the apparent shift in molecular weight observed when the sample was mixed with streptavidin and analyzed by an anti-VHL Western blot (Figure S2).[20] Through this assay, we concluded that 10 μM VHL-SF1-Biotin modified 32% VHL following 2 h of incubation at room temperature, which was further confirmed to be concentration-dependent with respect to the probe (Figure S3).
Figure S2. (A) Structure of VHL-SF-1-Biotin. (B) Structure of VHL-SF-2-Biotin. (C - E) Gel-based streptavidin shift assay of VHL-SF1-Biotin, and VHL-SF2-Biotin. VCB protein was pre-treated with DMSO, VHL-SF1-Biotin (10 μM) or VHL-SF2-Biotin (10 μM) for 2 h at room temperature prior to addition of streptavidin (10 μM, 10 min) at room temperature, after which protein was resolved on SDS-PAGE and visualised by VHL western blotting. (F) Quantification of VHL levels from western blot.
Docking analysis with Molecular Operating Environment (MOE)
Molecular modelling studies were conducted using the software Molecular Operating Environment 2019.01. […]

| SMILES | displacement of fluorophore-labeled HIF1α peptide [1] | half-life (physchem; pH 6) [min] | half-life (physchem; pH 7.5) [min] | VHL modified (VHL biotinylation, streptavidin shift) [2] [%] |
| --- | --- | --- | --- | --- |
| CC(=O)N[C@H](C(=O)N1C[C@H](S(=O)(=O)F)C[C@H]1C(=O)NCc1ccc(-c2scnc2C)cc1)C(C)(C)C [VHL-SF1, (3R,5S)-1-((S)-2-Acetamido-3,3-dimethylbutanoyl)-5-((4-(4-methylthiazol-5-yl)benzyl)carbamoyl)-pyrrolidine-3-sulfonyl fluoride] | unable to displace | 900 | 33 | – |
| Cc1cc([C@H](C(=O)N2C[C@H](S(=O)(=O)F)C[C@H]2C(=O)N[C@@H](CC(=O)NCCOCCOCCOCCNC(=O)CCCC[C@H]2SC[C@@H]3NC(=O)N[C@@H]32)c2ccc(-c3scnc3C)cc2)C(C)C)on1 [VHL-SF2-Biotin, (3R,5S)-1-((R)-3-Methyl-2-(3-methylisoxazol-5-yl)butanoyl)-5-(((S)-1-(4-(4-methylthiazol-5-yl)phenyl)-3,17-dioxo-21-((3aS,4R,6aR)-2-oxohexahydro-1H-thieno[3,4-d]imidazole-4-yl)-7,10,13-trioxa-4,16-diazahenicosyl)carbamoyl)pyrrolidine-3-sulfonyl fluoride] | – | – | – | 44 |
